From ChEMBL document CHEMBL1201862, “PubChem BioAssay data set” (2004) come the findings set out here.

Test systems include COLO 205; UACC-62; RPMI-8226; HCT-116; MDA-N; RXF 393; OVCAR-3; PC-3; SK-MEL-2; SF-539; HCT-15; HOP-92; OVCAR-8; NCI-H522; NCI-H23; LOX IMVI; EKVX; SNB-75; Hs-578T.
Common to all, as to test: NCI tumour cell line growth inhibition, 48 h

Structures are written as SMILES.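 Cells were grown in 96-well plates and exposed to each compound for 48 hours at five concentrations; endpoints were interpolated linearly between bracketing concentrations, or set to the highest concentration if not reached. At the GI50, growth is halved.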 Activity calls are given as the source filed them. No stated cut-off is given here; in the data, active = GI50 up to about 1.1 µM and inactive = higher.

Consider `CCOC1=NC(O)c2cccn2-c2sccc21` (centres undefined), for which the GI50 in the experiment on COLO 205 was 7.73 µM (inactive); in the experiment on UACC-62, > 100 µM (inactive); in the experiment with RPMI-8226, 26.7 µM (inactive); in the experiment with HCT-116, > 100 µM (inactive); in the experiment with MDA-N, > 100 µM (inactive); with RXF 393, > 100 µM (inactive). The GI50 is > 100 µM (inactive) in the experiment with OVCAR-3; > 100 µM (inactive) in the experiment on PC-3; > 100 µM (inactive) in the experiment with SK-MEL-2; > 100 µM (inactive) with SF-539; over 100 µM with HCT-15; > 100 µM (inactive) in the experiment with HOP-92. For the same molecule, the GI50 in the experiment with OVCAR-8, in the experiment with NCI-H522 and in the experiment with NCI-H23 was > 100 µM (inactive) throughout.

With `CCOC(=O)C1=c2[nH]c3cccc4cccc(c43)n2C=C(C(C)=O)C1CC(C)=O` (centres undefined), the GI50 was 35.1 µM (inactive) in the experiment with COLO 205; > 100 µM (inactive) in the experiment with UACC-62; > 100 µM (inactive) in the experiment with RPMI-8226; 43.2 µM (inactive) in the experiment with LOX IMVI; 34.4 µM (inactive) with HCT-116; > 100 µM (inactive) in the experiment on MDA-N. Besides, the GI50 with RXF 393 is 56.1 µM (inactive); in the experiment on OVCAR-3, > 100 µM (inactive); in the experiment on PC-3 it was > 100 µM (inactive); in the experiment with SK-MEL-2 it was > 100 µM (inactive); in the experiment on EKVX, > 100 µM (inactive); with HCT-15 it was 44 µM. Besides, the GI50 is > 100 µM (inactive) with SNB-75, 36.6 µM (inactive) in the experiment on HOP-92, 46.2 µM (inactive) with OVCAR-8 and 69.7 µM (inactive) in the experiment with NCI-H23.

In the case of `CC1CC[C@@H](C(C)C)[C@H](Oc2nnc(C3OC(CO)C(O)C3O)o2)C1` (some centres undefined), the GI50 in the experiment with COLO 205, in the experiment on UACC-62, with RPMI-8226, in the experiment with LOX IMVI, in the experiment on HCT-116 and with MDA-N was > 100 µM (inactive) each time. For the same molecule, the GI50 with RXF 393, with OVCAR-3, in the experiment on PC-3, with SK-MEL-2, with SF-539 and with EKVX was > 100 µM (inactive) each time. The GI50 in the experiment on HCT-15 is over 100 µM; in the experiment with SNB-75 it was > 100 µM (inactive); in the experiment on HOP-92, > 100 µM (inactive); in the experiment on OVCAR-8, > 100 µM (inactive); with NCI-H23, > 100 µM (inactive).

In the case of `COC(=O)C(=O)c1cc2ccccc2n1S(=O)(=O)c1ccccc1`, the GI50 with COLO 205, in the experiment on UACC-62, in the experiment on LOX IMVI, with HCT-116, in the experiment on MDA-N and with RXF 393 was > 100 µM (inactive) in each case. Also, the GI50 in the experiment with OVCAR-3 was > 100 µM (inactive); in the experiment on PC-3, > 100 µM (inactive); in the experiment with SK-MEL-2 it was > 100 µM (inactive); in the experiment on SF-539, > 100 µM (inactive); with EKVX, > 100 µM (inactive); in the experiment with HCT-15, over 100 µM. Also, the GI50 with SNB-75 is 84.5 µM (inactive); in the experiment on HOP-92, > 100 µM (inactive); with OVCAR-8, > 100 µM (inactive); in the experiment with NCI-H522, > 100 µM (inactive); in the experiment with NCI-H23, > 100 µM (inactive).

As for `COC(=O)c1sc2ncc3c(c2c1N)CCCCCC3`, the GI50 with COLO 205, in the experiment with UACC-62, in the experiment on RPMI-8226, with LOX IMVI, with HCT-116 and with MDA-N was > 100 µM (inactive) throughout. Also, the GI50 in the experiment on RXF 393, in the experiment with OVCAR-3, in the experiment with PC-3, in the experiment on SK-MEL-2, in the experiment with SF-539 and in the experiment with EKVX was > 100 µM (inactive) throughout. For the same molecule, the GI50 in the experiment with HCT-15 is over 100 µM; in the experiment on SNB-75, 97.3 µM (inactive); with HOP-92 it was > 100 µM (inactive); with OVCAR-8, > 100 µM (inactive); in the experiment with NCI-H522, > 100 µM (inactive); in the experiment with NCI-H23 it was > 100 µM (inactive).

On to `O=C(/C=C1\Nc2ccccc2N\C1=C\C(=O)c1ccc(Cl)cc1)c1ccccc1`, for which the GI50 in the experiment with COLO 205 was > 100 µM (inactive); with UACC-62, > 100 µM (inactive); with RPMI-8226, 39.4 µM (inactive); in the experiment with LOX IMVI, 33.3 µM (inactive); in the experiment with HCT-116, 38.3 µM (inactive); with RXF 393 it was 70.1 µM (inactive). For the same molecule, the GI50 with PC-3 was > 100 µM (inactive); in the experiment with SK-MEL-2 it was > 100 µM (inactive); in the experiment on SF-539, 35.1 µM (inactive); in the experiment on EKVX, > 100 µM (inactive); in the experiment with HCT-15 it was 52.7 µM; in the experiment with SNB-75, 21.3 µM (inactive). Further, the GI50 is 23.9 µM (inactive) in the experiment with OVCAR-8, > 100 µM (inactive) with NCI-H522 and 75 µM (inactive) in the experiment with NCI-H23.

As to `Cc1ccc(Cc2nn(C)c(=O)n2N)cc1`, the GI50 with COLO 205, with UACC-62, in the experiment with RPMI-8226, in the experiment with LOX IMVI, with HCT-116 and in the experiment on MDA-N was > 100 µM (inactive) each time. Besides, the GI50 with OVCAR-3 was > 100 µM (inactive); with PC-3, > 100 µM (inactive); with SK-MEL-2, > 100 µM (inactive); with SF-539 it was > 100 µM (inactive); in the experiment on EKVX it was > 100 µM (inactive); in the experiment with HCT-15, over 100 µM. The GI50 in the experiment with HOP-92, in the experiment on OVCAR-8 and in the experiment with NCI-H23 was > 100 µM (inactive) throughout.

For the molecule `COc1ccc(Oc2nc3ccc(C(F)(F)F)cc3nc2-c2ccccc2)cc1`, the GI50 in the experiment with COLO 205 is > 100 µM (inactive); in the experiment on Hs-578T, > 100 µM (inactive); with UACC-62 it was > 100 µM (inactive); with RPMI-8226 it was 7.23 µM (inactive); in the experiment with LOX IMVI, > 100 µM (inactive); in the experiment on HCT-116, > 100 µM (inactive). Further, the GI50 with RXF 393 is 50.5 µM (inactive); in the experiment on OVCAR-3, > 100 µM (inactive); in the experiment on PC-3, > 100 µM (inactive); in the experiment with SK-MEL-2, > 100 µM (inactive); with EKVX, > 100 µM (inactive); in the experiment with HCT-15, over 100 µM. Further, the GI50 is 49.9 µM (inactive) in the experiment with HOP-92, > 100 µM (inactive) in the experiment with NCI-H522 and 1.13 µM (inactive) in the experiment with NCI-H23.

As to `O=C1OC(CC(=O)c2ccccc2Cl)C(Cl)=C1Cl` (centres undefined), the GI50 in the experiment on COLO 205, with UACC-62, in the experiment on RPMI-8226, in the experiment on LOX IMVI, with HCT-116 and in the experiment on RXF 393 was > 100 µM (inactive) each time. For the same molecule, the GI50 in the experiment with OVCAR-3 was > 100 µM (inactive); in the experiment with SK-MEL-2, > 100 µM (inactive); with SF-539 it was > 100 µM (inactive); in the experiment on EKVX, > 100 µM (inactive); in the experiment on HCT-15, over 100 µM; in the experiment with HOP-92, > 100 µM (inactive). The GI50 in the experiment on OVCAR-8, with NCI-H522 and in the experiment with NCI-H23 was > 100 µM (inactive) throughout.

For `CN(/N=C/c1ccc(C(=O)O)cc1)C1=NCCCCN1`, the GI50 in the experiment with COLO 205, in the experiment on UACC-62, with RPMI-8226, with LOX IMVI, in the experiment on HCT-116 and in the experiment on MDA-N was > 100 µM (inactive) throughout. In addition, the GI50 in the experiment on OVCAR-3 is > 100 µM (inactive); in the experiment on PC-3, > 100 µM (inactive); with SF-539, > 100 µM (inactive); in the experiment on EKVX, > 100 µM (inactive); with HCT-15, over 100 µM; in the experiment on SNB-75 it was 98.9 µM (inactive). The GI50 with OVCAR-8, in the experiment on NCI-H522 and in the experiment with NCI-H23 was > 100 µM (inactive) in each case.

For the molecule `Nc1ccc(-c2nc3ccc(Cc4ccc5nc(-c6ccc(N)cc6)oc5c4)cc3o2)cc1`, the GI50 in the experiment with COLO 205, in the experiment with UACC-62, in the experiment with RPMI-8226, in the experiment with LOX IMVI, in the experiment on HCT-116 and in the experiment with MDA-N was > 100 µM (inactive) throughout. The GI50 was > 100 µM (inactive) in the experiment with RXF 393; > 100 µM (inactive) with PC-3; > 100 µM (inactive) in the experiment on SK-MEL-2; > 100 µM (inactive) with SF-539; over 100 µM in the experiment with HCT-15; 47.4 µM (inactive) with HOP-92. For the same molecule, the GI50 in the experiment with OVCAR-8, in the experiment with NCI-H522 and with NCI-H23 was > 100 µM (inactive) in each case.

As for `O=C1CCCCC/C1=C\c1cccc(F)c1`, the GI50 is > 100 µM (inactive) in the experiment on COLO 205; 67.3 µM (inactive) in the experiment on UACC-62; 19.8 µM (inactive) in the experiment with RPMI-8226; 54.6 µM (inactive) in the experiment with HCT-116; 62.5 µM (inactive) in the experiment with MDA-N; > 100 µM (inactive) in the experiment on RXF 393. Besides, the GI50 in the experiment on OVCAR-3 was > 100 µM (inactive); with PC-3 it was > 100 µM (inactive); with SK-MEL-2, > 100 µM (inactive); in the experiment with SF-539, > 100 µM (inactive); in the experiment with EKVX it was 73.8 µM (inactive); in the experiment on HCT-15, 39.8 µM. The GI50 in the experiment with SNB-75 and with OVCAR-8 was > 100 µM (inactive) each time.

In the case of `O=C1OC(=O)C2C3CCC(O3)C12` (centres undefined), the GI50 in the experiment on COLO 205, in the experiment on UACC-62, in the experiment on RPMI-8226, in the experiment with HCT-116, in the experiment on RXF 393 and with OVCAR-3 was > 100 µM (inactive) each time. Also, the GI50 in the experiment on SK-MEL-2, in the experiment with SF-539, with EKVX, in the experiment on HOP-92, in the experiment with OVCAR-8 and with NCI-H23 was > 100 µM (inactive) throughout.
